As a reminder, the EC50 is the midpoint of the concentration-response curve. One may read the IC50 as the concentration that gives 50% inhibition. What is called CC50 is the concentration giving 50% cytotoxicity.

Converted amounts (≈) assume the structure as drawn.

T1 sequence (P06821 whole entry): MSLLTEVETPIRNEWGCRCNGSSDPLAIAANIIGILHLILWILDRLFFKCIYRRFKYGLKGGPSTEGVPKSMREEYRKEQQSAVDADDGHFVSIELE

One data set concerns Influenza A virus. The format is functional, organism-based. The note with it: A/WSN/33 (H1N1), MDCK, 48 h.
The compound `OC12CC3CC(C1)CC(NCc1ccc(N4CCCCCCC4)cn1)(C3)C2` came in with an EC50 of 7.9 µM.
In turn, `c1nc(N2CCCCCC2)ncc1CNC12CC3CC(CC(C3)C1)C2` came in with an EC50 of 0.7 µM.
On the same count and under the same terms, the result for `c1nc(N2CCCCC2)ncc1CNC12CC3CC(CC(C3)C1)C2` reads 1.5 µM.
`c1nc(N2CCCCCC2)cnc1CNC12CC3CC(CC(C3)C1)C2` came in with an EC50 of 1.9 µM.
`OC12CC3CC(C1)CC(NCc1ccc(N4CCCCCC4)cn1)(C3)C2`: the concentration giving a half-maximal response (EC50) worked out at 2.7 µM. This EC50 and that of the compound before are within 1.5-fold of each other.
`OC12CC3CC(C1)CC(NCc1cnc(N4CCCCC4)nc1)(C3)C2`: the EC50 turned out to be 4.3 µM.

The subject of another data set is Influenza A virus. In kind it is functional, organism-based. The note with it: H5N1 (A/chicken/Hubei/327/2004), MDCK.
In the case of `[C-]#[N+]C12CC3CC(CC(C3)C1)C2`, the EC50 stood at 0.487 µM. This lies in the sub-micromolar range.
Same read-out and setting: the result for `[C-]#[N+]C(C)(C)CC(C)(C)C` reads 3.88 µM; that for `[C-]#[N+]c1c(C)cc(C(C)(C)C)cc1C`, 0.24 µM.
The same measure, in the same setting: the result for `[C-]#[N+][C@@H]1C[C@@H]2C[C@H]([C@H]1C)C2(C)C` reads 7.36 µM.
`[C-]#[N+]C(C)C12CC3CC(CC(C3)C1)C2` (centres undefined) came in with an EC50 of 0.24 µM.
The compound `[C-]#[N+]C1C2CC3CC(C2)CC1C3` (centres undefined) registered an EC50 of 9.8 µM.

System in the next data set: not listed separately
The data set is described as follows: Selectivity index, ratio of CC50 for MDCK cells to IC50 for influenza A virus A/hanfang/359/95 (H3N2). In kind it is toxicity. The note with it: dog, read-out: Ratio CC50/IC50.
As to `O=C(CCC[C@@H]1[C@H]2CCCN3CCC[C@@H](CN1S(=O)(=O)c1cccc(C(F)(F)F)c1)[C@@H]23)OCC12CC3CC(CC(C3)C1)C2`, the selectivity ratio turned out to be 9.31.

The subject of the next data set is Influenza A virus. Description: Antiviral activity against influenza A virus A/hanfang/359/95 (H3N2).
Conditions: not given
The format is functional, organism-based.
Consider `O=C(CCC[C@@H]1[C@H]2CCCN3CCC[C@@H](CN1S(=O)(=O)c1ccc(C(F)(F)F)cc1)[C@@H]23)OCC12CC3CC(CC(C3)C1)C2`, for which 21.1 µM corresponded to half-maximal inhibition (IC50).
On the same count and under the same terms, the result for `O=C(CCC[C@@H]1[C@H]2CCCN3CCC[C@@H](CN1S(=O)(=O)c1ccc(C(F)(F)F)cc1)[C@@H]23)OCCC12CC3CC(CC(C3)C1)C2` reads 16.9 µM; that for `O=C(CCC[C@@H]1[C@H]2CCCN3CCC[C@@H](CN1S(=O)(=O)c1cccc(C(F)(F)F)c1)[C@@H]23)OCC12CC3CC(CC(C3)C1)C2`, 5.14 µM; that for `Cc1ccc(S(=O)(=O)N2C[C@@H]3CCCN4CCC[C@@H]([C@H]34)[C@H]2CCCC(=O)OCC23CC4CC(CC(C4)C2)C3)cc1`, 16.2 µM.
For `O=C(CCC[C@@H]1[C@H]2CCCN3CCC[C@@H](CN1S(=O)(=O)c1cccc(C(F)(F)F)c1)[C@@H]23)OCC12CC3CC(CC(O)(C3)C1)C2`, the IC50 was determined as 11.1 µM.
Same read-out and setting: the result for `O=C(CCC[C@@H]1[C@H]2CCCN3CCC[C@@H](CN1S(=O)(=O)c1ccc(C(F)(F)F)cc1)[C@@H]23)OCC12CC3CC(CC(O)(C3)C1)C2` reads 9.53 µM; that for `O=C(CCC[C@@H]1[C@H]2CCCN3CCC[C@@H](CN1S(=O)(=O)c1ccccc1)[C@@H]23)OCC12CC3CC(CC(C3)C1)C2`, 16.3 µM.

System in the next data set: not listed separately
Description: Cytotoxicity against MDCK cells measured after 3 days by MTT assay. To be noted: dog, time 3 day. The format is toxicity, cell-based, Canis lupus familiaris. (In general: Tetrazolium assays rely on reduction of a dye to a coloured formazan, in cell work by metabolically active cells.)
The compound `CC[C@@H](C(=O)[C@@H](C)[C@@H](O)[C@H](C)[C@@H]1O[C@@H]([C@@H](CC)C(=O)O)CC[C@@H]1C)[C@H]1O[C@]2(C=C[C@@H](O)[C@]3(CC[C@@](C)([C@H]4CC[C@](O)(CC)[C@H](C)O4)O3)O2)[C@H](C)C[C@@H]1C` [SALINOMYCIN] returned a 50% cytotoxic concentration (CC50) at 72 h of 35.6 µM.

A further data set concerns Influenza A virus. In kind it is functional, organism-based. The note with it: H1N1 (A/Hongkong/68), MDCK, 24 h.
`CC(NC(=O)c1csc(CN)n1)C12CC3CC(CC(C3)C1)C2` (centres undefined) showed an IC50 of 0.11 µg/mL (≈ 0.344 µM).

System in the next data set: not listed separately
The data set is described as follows: Cytotoxicity against MDCK cells incubated for 24 hrs by neutral red uptake assay. The format is toxicity, cell-based, Canis lupus familiaris. The note with it: dog.
`NC1CCC2(CC1)C1CC3CC(C1)CC2C3` (centres undefined) displayed a CC50 at 24 h of 27.6 µM.

The next data set has as its target T1, Matrix protein 2 (Influenza A virus, UniProt P06821). The format is cell-based, A/Udorn/72, Oocyte.
Conditions: not given
Consider `C1CCC2(CC1)CCNCC2`, for which inhibition was half-maximal at 0.9 µM (IC50).
Turning to `NC1CCCC2(CCCCCC2)CC1` (centres undefined), the IC50 was 8.7 µM.
On the same count and under the same terms, the result for `CC(N)C1CCC2(CCCCC2)CC1` (centres undefined) reads 16 µM; that for `NC1CCCC2(CCCCC2)CC1` (centres undefined), 13.2 µM; that for `NC1CCC2(CCCCC2)CC1` [listing 1 of 2 here], 12.6 µM.
On the same count and under the same terms, the value for `NC1CCC2(CCCCCC2)CC1` was 13 µM; that for `NC1CCC2(CCCC2)CC1` [listing 1 of 2 here] was 3.3 µM; that for `NCC1CCC2(CCCCC2)CC1` was 8.9 µM.

In a further data set the target is T1, Matrix protein 2. In kind it is cell-based, Oocyte.
Conditions: not given
This is another data set of the same source.
As to `C[Si]1(C)CCC(CN)CC1`, the IC50 was found to be 5.7 µM. This counts as single-digit micromolar.
Same read-out and setting: the result for `C[Si]1(C)CCCNCC1` reads 19.4 µM; that for `CC1(C)CCC(N)CC1`, 2.4 µM.
On the same count and under the same terms, the value for `CC1(C)CCCNCC1` was 26.1 µM; that for `NC1CC[Si]2(CCCCC2)CC1` was 13.7 µM.
`NC1CCC2(CCCCC2)CC1` [listing 2 of 2 here] showed an IC50 of 12.6 µM. The IC50 values of the last two compounds are within 1.5-fold of each other.
The same measure, in the same setting: the result for `NC1CC[Si]2(CCCC2)CC1` reads 7.8 µM; that for `C[Si]1(C)CCC(N)CC1`, 2.6 µM.
Take `NC1CCC2(CCCC2)CC1` [listing 2 of 2 here]: the IC50 was found to be 3.3 µM.

For another data set, the system named is Influenza A virus. In kind it is functional, organism-based. The note with it: H3N2 (A/Perth/10/2007), MDCK, 72 h.
For the compound `CC[C@@H](C(=O)[C@@H](C)[C@@H](O)[C@H](C)[C@@H]1O[C@@H]([C@@H](CC)C(=O)O)CC[C@@H]1C)[C@H]1O[C@]2(C=C[C@@H](O)[C@]3(CC[C@@](C)([C@H]4CC[C@](O)(CC)[C@H](C)O4)O3)O2)[C@H](C)C[C@@H]1C` [SALINOMYCIN], the EC50 is 2.6 µM.

For the next data set, the system named is Influenza A virus. The format is functional, organism-based. The note with it: H1N1 (A/California/7/2009), MDCK, 72 h.
The compound `CC[C@@H](C(=O)[C@@H](C)[C@@H](O)[C@H](C)[C@@H]1O[C@@H]([C@@H](CC)C(=O)O)CC[C@@H]1C)[C@H]1O[C@]2(C=C[C@@H](O)[C@]3(CC[C@@](C)([C@H]4CC[C@](O)(CC)[C@H](C)O4)O3)O2)[C@H](C)C[C@@H]1C` [SALINOMYCIN] gave an EC50 of 1.9 µM.

System in a further data set: not listed separately
Description: Cytotoxicity against MDCK cells incubated for 72 hrs by CCK-8 assay. In kind it is toxicity, cell-based, Canis lupus familiaris. To be noted: dog.
In turn, `CC1(C)[C@@H]2CC[C@@]1(C)[C@@H](CN)C2` had a CC50 at 72 h of over 300 µM.
The same measure, in the same setting: the value for `CC(N)[C@H]1C[C@H]2CC[C@]1(C)C2(C)C` (some centres undefined) was over 300 µM; that for `C[C@H]1[C@H](N)C[C@@H]2C[C@H]1C2(C)C` was over 300 µM.

The test system of another data set is Influenza A virus. In kind it is functional, organism-based. To be noted: A/WSN/33 (H1N1), MDCK, 48 h. The source holds these as a separate data set.
`Brc1cc(CNC23CC4CC(CC(C4)C2)C3)cs1` showed a concentration for a half-maximal effect (EC50) of 2.2 µM.
On the same count and under the same terms, the value for `c1c(CNC23CC4CC(CC(C4)C2)C3)noc1C1CC1` was 0.49 µM.

System in the next data set: not listed separately
Description: Cytotoxicity against MDCK cells. The format is toxicity, cell-based, Canis lupus familiaris. To be noted: dog.
Compound `O=C(CCC[C@@H]1[C@H]2CCCN3CCC[C@@H](CN1S(=O)(=O)c1cccc(C(F)(F)F)c1)[C@@H]23)OCC12CC3CC(CC(C3)C1)C2` showed a CC50 of 47.8 µM.
Still for that read-out and setting: the value for `CC(NC(=O)c1csc(CN)n1)C12CC3CC(CC(C3)C1)C2` (centres undefined) was 50 µg/mL.

(Values after ChEMBL document CHEMBL5512617, “Tackling Influenza A virus by M2 ion channel blockers: Latest progress and limitations” (Eur J Med Chem, 2024).)
